This note sets out measurements from patent US20200085918A1, “COMPOSITIONS AND METHODS FOR TREATMENT OF UREMIC CARDIOMYOPATHY” (priority 2016, published 2020).

Assay [1] concerns PNx mice. Kind of assay: Renal function: plasma cystatin C, creatinine and BUN, CoPP and pNaKtide study. The assay is classed as in vivo, mouse. The settings on record: PNx + CoPP 5 mg/kg BW ip. On the procedure: Measurement of plasma cystatin C, creatinine and blood urea nitrogen (BUN): Mouse cystatin C ELISA kit and mouse creatinine kit were obtained from Crystal Chem. Inc. (Downers Grove, Ill.). Mouse BUN ELISA kit was obtained from MyBioSource Inc (San Diego, Calif.). The measurements were performed following manufacturers' instructions. Each sample was tested in duplicate.

Assay [2] concerns collagen-1. Type of assay: cell-based, mouse. On the procedure: (§1) Western Blotting Analysis: Cardiac (left ventricle) tissue samples and cardiac fibroblast homogenates were prepared and analyzed as was previously described for collagen-1 and other proteins. Assessment of protein carbonylation and activation of c-Src and ERK1/2 was performed as was described previously. Multiple exposures were analyzed to assure that the signals were within the linear range of the film. The signal density was determined using NIH ImageJ 1.48v software. Polyclonal antibody against type I collagen was from Southern Biotech (Birmingham, Ala.). Polyclonal anti-Src [pY418] phosphospecific antibody was from Invitrogen (Camarillo, Calif.). Monoclonal antibody against total c-Src was from Santa Cruz (Santa Cruz, Calif.). 2,4-dinitrophenylhydrazine (DNPH) and antibody against 2,4-dinitrophenyl (DNP) hydrazone derivatives were from Sigma-Aldrich.
Experimental design for in vitro experiment: C57BL/6 mouse primary cardiac fibroblast cells (purchased from Cell Biologics, Inc., Chicago, Ill.) were resuspended in complete fibroblast medium with supplements and 10% FBS (Cell Biologics, Inc.). The cultures were maintained at 37° C. in a 5% CO2 incubator and the medium was changed after 48 h and every 2-3 days thereafter. Cardiac fibroblast cells (passage 3-4) were grown until over confluent and were serum-starved (with 1% FBS) overnight before being used for the experiments. Cells were treated with or without TCB (100 nM) to determine procollagen-1 and HO-1 expression (24 h treatment), and c-Src activation and protein carbonylation (1 h treatment).

Assay [3] deals with collagen-1. Kind of assay: Collagen-1 expression in left ventricle homogenates (western blot), CoPP and pNaKtide study. The assay is classed as in vivo, mouse. The settings on record: LV homogenates; PNx + CoPP 5 mg/kg BW ip; p<0.01 vs PNx. The method, then:
as §1

Assay [4] has as its system HO-1. Kind of assay: HO-1 expression in left ventricle homogenates (western blot), CoPP and pNaKtide study. Type of assay: in vivo, mouse. The note with it: CoPP 5 mg/kg BW ip. On the procedure: as §1
For another assay, the system named is TBARS. Nature of the assay: Thiobarbituric acid reactive substances (TBARS) in treated PNx mice. Type of assay: in vivo, mouse. The note with it: PNx + CoPP 5 mg/kg BW ip.
Assay [5] deals with c-Src. Kind of assay: c-Src activation (pY418 c-Src/total c-Src) in primary cardiac fibroblasts. Type of assay: cell-based, mouse. The method, then:
as §1
(§2) Experimental design for in vitro experiment: C57BL/6 mouse primary cardiac fibroblast cells (purchased from Cell Biologics, Inc., Chicago, Ill.) were resuspended in complete fibroblast medium with supplements and 10% FBS (Cell Biologics, Inc.). The cultures were maintained at 37° C. in a 5% CO2 incubator and the medium was changed after 48 h and every 2-3 days thereafter. Cardiac fibroblast cells (passage 3-4) were grown until over confluent and were serum-starved (with 1% FBS) overnight before being used for the experiments. […]

Assay [6] has as its system PNx-induced cardiomyopathy, C57BL/6 mice. Kind of assay: Transthoracic echocardiography, PNx mice (effects of CoPP and pNaKtide on PNx-induced cardiomyopathy). The assay is classed as in vivo, mouse. The note with it: PNX + CoPP (5 mg/kg BW ip), n = 15, mean ± SE. The method, then: Experimental designs: Male C57BL/6 10-12 weeks were purchased from Hill Top Laboratories and housed in pathogen free animal facility in designated rooms equipped with cages that supply purified air under a 12 hour light/dark cycle. Food and water were supplied ad libitum. Animal protocol was approved by the Marshall University Institutional Animal Care and Use Committee. The number of animals in each group was determined by Power analysis using the following assumptions derived from a previous study with mice, with variance of 0.2 within the groups, power of 0.80, and alpha error of 0.05. Effects of CoPP and […] on PNx-induced cardiomyopathy: Cobalt protoporphyrin (CoPP, Frontier Scientific, Logan, Utah) was used to induct HO-1 expression and […] was used to block the Na/K-ATPase signaling function. […] Transthoracic Echocardiography: Transthoracic echocardiography was performed 24 hours before sacrifice. […] Mice in supine position were placed on a heating pad to keep the body temperature at 37° C. Body core temperature and ECG for physiological monitoring were obtained and manipulated by using a Visualsonics Mouse Handling Table (11436) and a rectal thermometer. Echocardiographic images were captured using MS400: 18-38 MHz operating frequency MicroScan transducer attached to a Vevo 1100 Imaging System (FUJIFILM VisualSonics Inc.). Warmed echo gel was placed between the probe and shaved chest. B-mode and M-mode images of the heart were obtained from parasternal long axis and short axis. PW Doppler and Color Doppler were obtained from basal short axis. The average values were calculated from at least four consecutive cardiac cycles. Left-ventricular end-diastolic area (EDA), end-systolic area (ESA), as well as main pulmonary artery diameter was measured from B-mode. End-diastolic diameters (EDD), end-systolic diameters (ESD), as well as anterior and posterior wall thickness (AWT & PWT) were captured from M-mode. Isovolumic contraction and relaxation time (IVCT & IVRT), ejection time (ET), as well as pulmonary velocity time integral (VTI) were obtained from PW and color Doppler.

The subject of assay [7] is ERK1/2. Nature of the assay: ERK1/2 activation (phosphor-ERK/total ERK) in primary cardiac fibroblasts. Type of assay: cell-based, mouse. On the procedure:
as §1, §2

Assay [8] deals with protein carbonylation. Nature of the assay: Protein carbonylation in left ventricle homogenates, CoPP and pNaKtide study. Type of assay: in vivo, mouse. The settings on record: PNx + CoPP 5 mg/kg BW ip; p<0.01 vs PNx. The method, then:
as §1

Assay [9] concerns HO-1. Nature of the assay: HO-1 expression in primary cardiac fibroblasts. Type of assay: cell-based, mouse. The settings on record: 24 h. The method, then: as §1, §2
Assay [10] relates to PNx-induced cardiac fibrosis. Nature of the assay: Cardiac fibrosis by Sirius Red/Fast Green staining, CoPP and pNaKtide study. Type of assay: in vivo, mouse. The note with it: PNx + CoPP 5 mg/kg BW ip; p<0.01 vs. PNx. The method, then: Effects of CoPP and […] on PNx-induced cardiomyopathy: Cobalt protoporphyrin (CoPP, Frontier Scientific, Logan, Utah) was used to induct HO-1 expression and […] was used to block the Na/K-ATPase signaling function. […] Sirius Red/Fast Green staining: Histology staining for collagen fiber was performed on tissues harvested with Sirius Red/Fast Green Collagen Staining solutions (Sigma-Aldrich) according to the manufacturer's protocol. Tissues preparation, fixation, and data analysis were conducted as previously described.

Assay [11] relates to c-Src. Kind of assay: c-Src activation in left ventricle homogenates, CoPP and pNaKtide study. Type of assay: in vivo, mouse. The note with it: PNx + CoPP 5 mg/kg BW ip, 4 weeks after PNx; p<0.01 vs PNx. On the procedure:
as §1

The test system of assay [12] is protein carbonylation. Nature of the assay: Protein carbonylation in primary cardiac fibroblasts. Type of assay: cell-based, mouse. The method, then: as §1, §2
The subject of assay [13] is PNx mice. Kind of assay: Heart weight/body weight ratio, CoPP and pNaKtide study. Type of assay: in vivo, mouse. The settings on record: PNx + CoPP 5 mg/kg BW ip.
Description: Nephrectomy Mouse Model: The PNx model included two-step surgeries. […] Step-two surgery was operated 7 days later, in which the right kidney was removed. For sham surgery, the two-step surgeries were performed in the same way as in the PNx group, without ligation of left kidney and removal of right kidney.
CoPP injections were given 5 days prior to, and on the day of, surgery, as well as every 5 days thereafter until sacrificing.
For assay [14], the system named is ERK1/2. Nature of the assay: ERK1/2 activation in left ventricle homogenates, CoPP and pNaKtide study. The assay is classed as in vivo, mouse. The note with it: PNx + CoPP 5 mg/kg BW ip, 4 weeks after PNx; p<0.01 vs PNx. The method, then:
as §1

Setting [15] is: CoPP 5 μM, 24 h pre-treatment, TCB 100 nM 1 h.
Where [16] appears, read: TCB 100 nM, 1 h, cardiac fibroblasts.

The structures appear in SMILES notation.

Consider `C=CC1=C(C)c2cc3[n-]c(cc4nc(cc5[n-]c(cc1n2)c(C)c5CCC(=O)[O-])C(CCC(=O)[O-])=C4C)c(C)c3C=C.[Co+2].[H+].[H+]` [CoPP, cobalt protoporphyrin], for which the “renal function as assessed by plasma cystatin C, creatinine, and BUN” value in the assay on PNx mice [1] is given as “neither CoPP nor pNaKtide effected significant changes”. In addition, the “collagen-1 expression at baseline” value in the assay with collagen-1 [2] (CoPP 5 μM, 24 h, no TCB, C57BL/6 mouse primary cardiac fibroblasts) was “did not significantly affect”. For the same compound, the “TCB induced increases in collagen-1 expression” value in the assay with collagen-1 [2] (CoPP 5 μM, 24 h pre-treatment, TCB 100 nM 24 h, p<0.01 vs TCB alone) is recorded as “significantly ameliorated”. Also, in the assay on collagen-1 [3], the “PNx-induced increases in cardiac collagen-1 expression” value was “reduced”. Also, the “HO-1 expression in the LV homogenates” value in the assay with HO-1 [4] is “induced HO-1 expression most profoundly”. Further, in the assay on TBARS, the TBARS result was “consistent with the carbonylation data”. The “TCB induced activation of c-Src” value in the assay on c-Src [5] (setting [15]) is “attenuated”. Moreover, in [6], the “AWT, anterior wall thickness” value was 0.65 ± 0.01^$$ mm; the “CO, cardiac output” value was determined as 10.5 ± 0.3 mL/min; the “EDA, end diastolic area” value is reported as 27.2 ± 0.6 mm^2; the “EDD, end diastolic dimension” value was found to be 4.4 ± 0.1 mm. Besides, in [6], the “EF, ejection fraction” value came out at 60.0 ± 2.9%; the “ESA, end systolic area” value is 19.0 ± 0.1 mm^2; the “ESD, end systolic dimension” value is on record as 3.2 ± 0.1 mm; the “ET, ejection time” value was 44 ± 1.0 ms. In assay [6], the “FS, fractional shortening” value was determined as 26.8 ± 1.7%; the “HR, heart rate” value is reported as 453 ± 11 beat/min; the “IVCT + IVRT, isovolumic contraction time + isovolumic relaxation time” value is 21 ± 0.7^$$ msec; the “LVMI, left ventricle mass index” value is listed as 4.0 ± 0.1^$$. Further, in assay [6], the “PWT, posterior wall thickness” value is given as 0.59 ± 0.02^$$ mm; the “PaD, pulmonary artery dimension” value came to 1.0 ± 0.02 mm; the “PaVTI, pulmonary artery Velocity time integral” value is given as 29.9 ± 0.5^$. The “TCB induced activation of ERK1/2” value with ERK1/2 [7] (setting [15]) is reported as “attenuated”. Further, the “PNx-induced protein carbonylation in LV homogenates” value in the assay with protein carbonylation [8] was “reduced”. Also, the HO-1 induction entry with HO-1 [9] (CoPP 5 μM, compared with TCB) is on record as “considerably greater”. In addition, the “PNx-induced cardiac fibrosis, Sirius Red/Fast Green staining” value in [10] is recorded as “significantly attenuated”. Also, the “activation of c-Src in LV homogenates” value in the assay with c-Src [11] is recorded as “attenuated”. In addition, in the assay on protein carbonylation [12] (setting [15]), the “TCB induced protein carbonylation” value was “attenuated”. Moreover, the “increase in heart weight/body weight ratio with PNx” value in the assay on PNx mice [13] is given as “not”. In addition, the “activation of ERK1/2 in LV homogenates” value in the assay on ERK1/2 [14] is reported as “attenuated”.

Consider `C[C@]12CC[C@H](O)C[C@@]1(O)CC[C@@H]1[C@@H]2CC[C@]2(C)[C@@H](c3ccc(=O)oc3)CC[C@]12O` [TCB, telecinobufagin], for which the “type I collagen (collagen-1) expression” value with collagen-1 [2] (TCB 100 nM, 24 h, vs control, C57BL/6 mouse primary cardiac fibroblasts, p<0.01) was “induced increases”. Moreover, the “activation of c-Src” value with c-Src [5] (setting [16]) was “induced activation”. Besides, in the assay on ERK1/2 [7] (setting [16]), the “activation of ERK1/2” value is “induced activation”. In the assay with HO-1 [9] (TCB 100 nM), the HO-1 expression result was “increased”. In addition, the protein carbonylation result with protein carbonylation [12] (setting [16]) is reported as “induced activation”.
